Each compound was assayed against T1, HPK1 kinase (aa1-346, Life Technologies) (Homo sapiens, UniProt Q92918) (assay: HPK Kinase Activity Assay at 1 mM ATP (TR-FRET)). Settings: HPK1 kinase 40 nM, 0.5 μM STK1 substrate, read-out: Enzymatic activity IC50.
T1 construct: HPK1 kinase (aa1-346, Life Technologies); purchased Life Technologies
T1 sequence (Q92918 1-346): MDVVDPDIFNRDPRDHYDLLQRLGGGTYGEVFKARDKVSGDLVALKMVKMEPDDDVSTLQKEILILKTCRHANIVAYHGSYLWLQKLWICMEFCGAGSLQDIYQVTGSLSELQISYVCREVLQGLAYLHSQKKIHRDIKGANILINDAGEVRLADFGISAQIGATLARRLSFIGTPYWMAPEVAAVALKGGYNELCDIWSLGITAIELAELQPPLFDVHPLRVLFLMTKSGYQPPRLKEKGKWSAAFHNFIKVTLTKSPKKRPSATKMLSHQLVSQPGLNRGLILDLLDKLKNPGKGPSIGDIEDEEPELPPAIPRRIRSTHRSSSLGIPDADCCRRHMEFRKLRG
Type: biochemical
Procedure: HPK Kinase Activity Assay at 1 mM ATP
Compounds disclosed herein were tested for inhibition of HPK1 kinase (aa1-346, Life Technologies) activity in assays based on the time-resolved fluorescence-resonance energy transfer (TR-FRET) methodology. The assays were carried out in 384-well low volume black plates in a reaction mixture containing HPK1 kinase (40 nM), 1 mM ATP, 0.5 μM STK1 substrate and 0-10 μM compound in buffer containing 50 mM HEPES, 0.01% BSA, 0.1 mM Orthovanadate, 10 mM MgCl2, 1 mM DTT, pH=7.0, 0.005% Tween-20. The kinase was incubated with the compounds disclosed herein or DMSO for 60 minutes at room temperature and the reaction was initiated by the addition of ATP and STK1 substrate. After reaction at room temperature for 120 minutes, an equal volume of stop/detection solution was added according to the manufacture's instruction (CisBio). The stop/detection solution contained STK Antibody-Cryptate and XL665-conjugated streptavidin in Detection Buffer. The TR-FRET signals (ratio of fluorescence emission at 665 nm over emission at 620 nm with excitation at 337 nm wavelength) were recorded on a PHERAstar FS plate reader (BMG Labtech). Phosphorylation of STK1 substrate led to the binding of STK Antibody-Cryptate to the biotinylated STK1 substrate, which places fluorescent donor (Eu^3+ crypate) in close proximity to the accepter (Streptavidin-XL665), thus resulting in a high degree of fluorescence resonance energy transfer. The inhibition of HPK1 in presence of increasing concentrations of compounds was calculated based on the ratio of fluorescence at 665 nm to that at 620 nm. The IC50 for each compound was derived from fitting the data to the four-parameter logistic equation by Graphpad Prism software.

| SMILES | IC50 [nM] |
| --- | --- |
| Cc1cc(-c2cnc(N)c(Oc3cnn(C4CCN(C)C4)c3)n2)cc2c1CCN(C)C2 (single isomer, unassigned) [Example 280A] | 12 |
| Cc1cc(-c2cnc(N)c(Oc3cnn(C4CCN(C)C4)c3)n2)cc2c1CCN(C)C2 (single isomer, unassigned) [Example 280B] | 51 |
| Cc1cc(-c2cnc(N)c(OCc3ccncn3)n2)cc2c1CCN(C)C2 [Example 3, 5-(2,5-dimethyl-1,2,3,4-tetrahydroisoquinolin-7-yl)-3-(pyrimidin-4-ylmethoxy)pyrazin-2-amine] | 364 |
| Cc1cc(-c2cnc(N)c(-n3ncc4cc(CO)ccc43)n2)cc2c1CCN(C)C2 [Example 4, (1-(3-amino-6-(2,5-dimethyl-1,2,3,4-tetrahydroisoquinolin-7-yl)pyrazin-2-yl)-1H-indazol-5-yl)methanol] | 75 |
| Cc1cc(-c2cnc(N)c(-n3cc4cc(CO)ccc4n3)n2)cc2c1CCN(C)C2 [Example 5, (2-(3-amino-6-(2,5-dimethyl-1,2,3,4-tetrahydroisoquinolin-7-yl)pyrazin-2-yl)-2H-indazol-5-yl)methanol] | 172 |
| Cc1cc(-c2cnc(N)c(-n3cc(O)cn3)n2)cc2c1CCN(C)C2 [Example 7, 1-(3-amino-6-(2,5-dimethyl-1,2,3,4-tetrahydroisoquinolin-7-yl)pyrazin-2-yl)-1H-pyrazol-4-ol] | 15 |
| Cc1cc(-c2cnc(N)c(OCc3ccncc3F)n2)cc2c1CCN(C)C2 [Example 8, 5-(2,5-dimethyl-1,2,3,4-tetrahydroisoquinolin-7-yl)-3-((3-fluoropyridin-4-yl)methoxy)pyrazin-2-amine] | 46 |
| Cc1cnccc1COc1nc(-c2cc(C)c3c(c2)CN(C)CC3)cnc1N [Example 9, 5-(2,5-dimethyl-1,2,3,4-tetrahydroisoquinolin-7-yl)-3-((3-methylpyridin-4-yl)methoxy)pyrazin-2-amine] | 17 |
| Cc1cc(-c2cnc(N)c(OCc3cc(Cl)ncc3OC(C)C)n2)cc2c1CCN(C)C2 [Example 12, 3-((2-chloro-5-isopropoxypyridin-4-yl)methoxy)-5-(2,5-dimethyl-1,2,3,4-tetrahydroisoquinolin-7-yl)pyrazin-2-amine] | 27 |
| Cc1cc(-c2cnc(N)c(OC3CCc4cnccc43)n2)cc2c1CCN(C)C2 (stereo not shown) [Example 13, 3-(6,7-dihydro-5H-cyclopenta[c]pyridin-5-yloxy)-5-(2,5-dimethyl-1,2,3,4-tetrahydroisoquinolin-7-yl)pyrazin-2-amine] | 62 |
| Cc1cc(-c2cnc(N)c(OCc3cccnc3)n2)cc2c1CCN(C)C2 [Example 15, 5-(2,5-dimethyl-1,2,3,4-tetrahydroisoquinolin-7-yl)-3-(pyridin-3-ylmethoxy)pyrazin-2-amine] | 157 |
| Cc1cc(-c2cnc(N)c(OCc3c(Cl)cccc3Cl)n2)cc2c1CCN(C)C2 [Example 17, 3-((2,6-dichlorobenzyl)oxy)-5-(2,5-dimethyl-1,2,3,4-tetrahydroisoquinolin-7-yl)pyrazin-2-amine] | 231 |
| Cc1cc(-c2cnc(N)c(OCc3ccccc3)n2)cc2c1CCN(C)C2 [Example 18, 3-(benzyloxy)-5-(2,5-dimethyl-1,2,3,4-tetrahydroisoquinolin-7-yl)pyrazin-2-amine] | 73 |
| Cc1cc(-c2cnc(N)c(OCc3ccncc3Cl)n2)cc2c1CCN(C)C2 [Example 21, 3-((3-chloropyridin-4-yl)methoxy)-5-(2,5-dimethyl-1,2,3,4-tetrahydroisoquinolin-7-yl)pyrazin-2-amine] | 35 |
| Cc1cc(-c2cnc(N)c(OC3CCCc4cnccc43)n2)cc2c1CCN(C)C2 (stereo not shown) [Example 26, 5-(2,5-dimethyl-1,2,3,4-tetrahydroisoquinolin-7-yl)-3-(5,6,7,8-tetrahydroisoquinolin-5-yloxy)pyrazin-2-amine] | 113 |
| Cc1cc(-c2cnc(N)c(OCc3ccnc(N)c3C)n2)cc2c1CCN(C)C2 [Example 29, 3-((2-amino-3-methylpyridin-4-yl)methoxy)-5-(2,5-dimethyl-1,2,3,4-tetrahydroisoquinolin-7-yl)pyrazin-2-amine] | 16 |
| Cc1cc(-c2cnc(N)c(OCc3ccncc3OC(C)C)n2)cc2c1CCN(C)C2 [Example 30, 5-(2,5-dimethyl-1,2,3,4-tetrahydroisoquinolin-7-yl)-3-((3-isopropoxypyridin-4-yl)methoxy)pyrazin-2-amine] | 7.6 |
| Cc1cnc(N)cc1COc1nc(-c2cc(C)c3c(c2)CN(C)CC3)cnc1N [Example 32, 3-((2-amino-5-methylpyridin-4-yl)methoxy)-5-(2,5-dimethyl-1,2,3,4-tetrahydroisoquinolin-7-yl)pyrazin-2-amine] | 5.1 |
| Cc1cc(-c2cnc(N)c(OCc3ccncc3OCc3ccccc3)n2)cc2c1CCN(C)C2 [Example 33, 3-((3-(benzyloxy)pyridin-4-yl)methoxy)-5-(2,5-dimethyl-1,2,3,4-tetrahydroisoquinolin-7-yl)pyrazin-2-amine] | 8.2 |

The next lines start with the values.

| IC50 [nM] | SMILES |
| --- | --- |
| 29 | Cc1cc(-c2cnc(N)c(OCc3ccncc3)n2)cc2c1CCN(C)C2 [Example 1, 5-(2,5-dimethyl-1,2,3,4-tetrahydroisoquinolin-7-yl)-3-(pyridin-4-ylmethoxy)pyrazin-2-amine] |
| 5.2 | Cc1cc(-c2cnc(N)c(OCc3ccnc(N)c3)n2)cc2c1CCN(C)C2 [Example 10, 3-((2-aminopyridin-4-yl)methoxy)-5-(2,5-dimethyl-1,2,3,4-tetrahydroisoquinolin-7-yl)pyrazin-2-amine] |
| 50 | Cc1cc(-c2cnc(N)c(OCc3ccnc(C#CC4CC4)c3)n2)cc2c1CCN(C)C2 [Example 11, 3-((2-(cyclopropylethynyl)pyridin-4-yl)methoxy)-5-(2,5-dimethyl-1,2,3,4-tetrahydroisoquinolin-7-yl)pyrazin-2-amine] |
| 9.4 | Cc1cc(-c2cnc(N)c(OCc3ccnc(C#CC(C)(C)O)c3)n2)cc2c1CCN(C)C2 [Example 14, 4-(4-(((3-amino-6-(2,5-dimethyl-1,2,3,4-tetrahydroisoquinolin-7-yl)pyrazin-2-yl)oxy)methyl)pyridin-2-yl)-2-methylbut-3-yn-2-ol] |
| 98 | Cc1cc(-c2cnc(N)c(OCc3ccnc(C#Cc4cccnc4)c3)n2)cc2c1CCN(C)C2 [Example 19, 5-(2,5-dimethyl-1,2,3,4-tetrahydroisoquinolin-7-yl)-3-((2-(pyridin-3-ylethynyl)pyridin-4-yl)methoxy)pyrazin-2-amine] |
| 151 | Cc1cc(-c2cnc(N)c(OCc3ccnc(C#Cc4ccc(F)cc4)c3)n2)cc2c1CCN(C)C2 [Example 20, 5-(2,5-dimethyl-1,2,3,4-tetrahydroisoquinolin-7-yl)-3-((2-((4-fluorophenyl)ethynyl)pyridin-4-yl)methoxy)pyrazin-2-amine] |
| 38 | Cc1cc(-c2cnc(N)c(OCc3ccnc4ccccc34)n2)cc2c1CCN(C)C2 [Example 22, 5-(2,5-dimethyl-1,2,3,4-tetrahydroisoquinolin-7-yl)-3-(quinolin-4-ylmethoxy)pyrazin-2-amine] |
| 137 | Cc1cc(-c2cnc(N)c(OCc3ccnc(C#Cc4ccncc4)c3)n2)cc2c1CCN(C)C2 [Example 23, 5-(2,5-dimethyl-1,2,3,4-tetrahydroisoquinolin-7-yl)-3-((2-(pyridin-4-ylethynyl)pyridin-4-yl)methoxy)pyrazin-2-amine] |
| 61 | Cc1cc(-c2cnc(N)c(OCc3ccnc(C#CC(C)(C)C)c3)n2)cc2c1CCN(C)C2 [Example 24, 5-(2,5-dimethyl-1,2,3,4-tetrahydroisoquinolin-7-yl)-3-((2-(3,3-dimethylbut-1-yn-1-yl)pyridin-4-yl)methoxy)pyrazin-2-amine] |
| 13 | CC#Cc1cc(COc2nc(-c3cc(C)c4c(c3)CN(C)CC4)cnc2N)ccn1 [Example 25, 5-(2,5-dimethyl-1,2,3,4-tetrahydroisoquinolin-7-yl)-3-((2-(prop-1-ynyl)pyridin-4-yl)methoxy)pyrazin-2-amine] |
| 25 | Cc1cc(-c2cnc(N)c(OCc3ccnc(N)c3)n2)cc2c1CN(C)CC2 [Example 31, 3-((2-aminopyridin-4-yl)methoxy)-5-(2,8-dimethyl-1,2,3,4-tetrahydroisoquinolin-6-yl)pyrazin-2-amine] |
| 12 | Cc1cc(-c2cnc(N)c(OCc3ccnc4[nH]ccc34)n2)cc2c1CCN(C)C2 [Example 34, 3-((1H-pyrrolo[2,3-b]pyridin-4-yl)methoxy)-5-(2,5-dimethyl-1,2,3,4-tetrahydroisoquinolin-7-yl)pyrazin-2-amine] |

Source: US12673933B2, “Aminopyrazine compounds as HPK1 inhibitor and the use thereof” (BEIGENE, LTD., priority 2019, dated 2026)
